From the NIST ThermoML archive (doi:10.1016/j.jct.2008.04.006)

What was measured:
[1] = xn = mol fraction of the nth substance listed; conditions: 100 kPa, Liquid
[2] = refractive index (Na D-line) (dimensionless); xn = mol fraction of the nth substance listed; conditions: 298.15 K, 100 kPa, Liquid, Standard Abbe refractometry
[3] = 100 kPa, Liquid
[4] = refractive index (Na D-line) (dimensionless); conditions: 298.15 K; 101.33 kPa; Liquid; Standard Abbe refractometry

CCO [ethanol] + COS(=O)(=O)[O-].Cn1cc[n+](C)c1
[1], x1 = 1
Conditions | mass density [kg/m3] | viscosity [mPa·s]
298.15 K | 785.46 | 1.082
313.15 K | 772 | 0.827
328.15 K | 758.55 | 0.641

Conditions | refractive index
[2], x1 = 1 | 1.36023

COS(=O)(=O)[O-].Cn1cc[n+](C)c1 [1,3-dimethylimidazolium methylsulfate] + O
[1]
Conditions | mass density, 298.15 K [kg/m3] | mass density, 313.15 K [kg/m3] | mass density, 328.15 K [kg/m3] | viscosity, 298.15 K [mPa·s] | viscosity, 313.15 K [mPa·s] | viscosity, 328.15 K [mPa·s]
x2 = 0 | 1329.12 | 1318.56 | 1308.13 | 77.7 | 41.68 | 25.21
x2 = 0.0497 | 1326.99 | 1316.44 | 1306.09 | 68.1 | 37.51 | 23.95
x2 = 0.1475 | 1322.81 | 1312.31 | 1301.96 | 53.6 | 30.44 | 19.85
x2 = 0.2128 | 1319.54 | 1309.03 | 1298.64 | 44.93 | 25.86 | 17.11
x2 = 0.3086 | 1313.75 | 1303.27 | 1292.81 | 35.23 | 20.76 | 13.79
x2 = 0.3869 | 1307.71 | 1297.25 | 1286.89 | 27.57 | 16.93 | 10.5
x2 = 0.4947 | 1296.97 | 1286.56 | 1276.22 | 19.55 | 12.41 | 8.521
x2 = 0.5959 | 1282.77 | 1272.39 | 1262.04 | 13.88 | 9.041 | 6.336
x2 = 0.6947 | 1262.17 | 1251.91 | 1240.95 | 9.599 | 6.368 | 4.518
x2 = 0.7966 | 1226.82 | 1216.82 | 1206.64 | 5.928 | 4.027 | 2.917
x2 = 0.8962 | 1162.06 | 1152.98 | 1143.43 | 2.925 | 2.069 | 1.548
x2 = 0.9485 | 1100.41 | 1092.64 | 1084.03 | 1.745 | 1.261 | 0.99

[2]
Conditions | refractive index
x2 = 0 | 1.48296
x2 = 0.0497 | 1.48187
x2 = 0.1475 | 1.47986
x2 = 0.2128 | 1.47824
x2 = 0.3086 | 1.47536
x2 = 0.3869 | 1.47252
x2 = 0.4947 | 1.46739
x2 = 0.5959 | 1.46071
x2 = 0.6947 | 1.45105
x2 = 0.7966 | 1.43485
x2 = 0.8962 | 1.40572
x2 = 0.9485 | 1.37848

CCO [ethanol]
[3]
Conditions | mass density [kg/m3] | viscosity [mPa·s]
298.15 K | 785.46 | 1.082
313.15 K | 772 | 0.827
328.15 K | 758.55 | 0.641

Conditions | refractive index
[4] | 1.36023

COS(=O)(=O)[O-].Cn1cc[n+](C)c1 [1,3-dimethylimidazolium methylsulfate] + CCO
[1]
Conditions | mass density, 298.15 K [kg/m3] | mass density, 313.15 K [kg/m3] | mass density, 328.15 K [kg/m3] | viscosity, 298.15 K [mPa·s] | viscosity, 313.15 K [mPa·s] | viscosity, 328.15 K [mPa·s]
x2 = 0 | 1329.12 | 1318.56 | 1308.13 | 77.7 | 41.68 | 25.21
x2 = 0.0669 | 1316.47 | 1305.89 | 1295.53 | 62.1 | 34.42 | 21.43
x2 = 0.1228 | 1305.19 | 1294.59 | 1284.2 | 51.6 | 29.38 | 18.72
x2 = 0.2212 | 1282.46 | 1271.77 | 1261.38 | 36.97 | 22.8 | 15.07
x2 = 0.2944 | 1263.18 | 1252.46 | 1241.97 | 29.56 | 17.97 | 12.28
x2 = 0.3984 | 1231.22 | 1220.4 | 1209.57 | 20.26 | 12.87 | 9.141
x2 = 0.5 | 1192.8 | 1181.88 | 1171.12 | 12.83 | 8.823 | 6.461
x2 = 0.5926 | 1150.85 | 1139.74 | 1128.74 | 8.784 | 6.258 | 4.727
x2 = 0.6921 | 1094.3 | 1082.98 | 1071.75 | 5.706 | 4.309 | 3.246
x2 = 0.797 | 1018.1 | 1006.41 | 994.72 | 3.513 | 2.649 | 2.077
x2 = 0.8957 | 923.16 | 910.98 | 898.7 | 2.096 | 1.603 | 1.265
x2 = 0.945 | 864.26 | 851.76 | 839.06 | 1.602 | 1.225 | 0.961

[2]
Conditions | refractive index
x2 = 0 | 1.48296
x2 = 0.0669 | 1.48028
x2 = 0.1228 | 1.47773
x2 = 0.2212 | 1.47336
x2 = 0.2944 | 1.46936
x2 = 0.3984 | 1.46252
x2 = 0.5 | 1.45421
x2 = 0.5926 | 1.44554
x2 = 0.6921 | 1.43248
x2 = 0.797 | 1.41494
x2 = 0.8957 | 1.39329
x2 = 0.945 | 1.37874

COS(=O)(=O)[O-].Cn1cc[n+](C)c1 [1,3-dimethylimidazolium methylsulfate]
[3]
Conditions | mass density [kg/m3] | viscosity [mPa·s]
298.15 K | 1329.12 | 77.7
313.15 K | 1318.56 | 41.68
328.15 K | 1308.13 | 25.21

Conditions | refractive index
[4] | 1.48296
